Measurements published in BindingDB's records for doi:10.1016/j.bioorg.2016.08.009 (China Pharmaceutical University, 2016).

biological target: T1, Bromodomain-containing protein 4 [44-168] (Human, UniProt O60885); test: BRD4-BD1 Binding Assay; settings: 25 °C
T1 construct: 44-168
Protocol: 11 compounds were evaluated against BRD4-BD1 in vitro with compound 28a as the reference compound. BRD4 (44-168 aa) was bought from Active Motif. After preparing 1× assay buffer (modified HEPES Buffer), target compounds were transferred to assay plate by Echo, and the final concentration of DMSO solution was 0.1%. Then the preparation of protein solution and substrate solution in 1× assay buffer was performed. After that, 5 µL of protein solution was transferred to assay plate and incubated at room temperature for 15 min. The protein concentration was 5 nM. Then 5 µL of substrate solution was added to each well to start reaction with an incubation period for 60 min at room temperature. Finally, 15 µL acceptor and donor solution were added, followed by another incubation period for 60 min at room temperature under subdued light.

Structure (SMILES) | IC50 [nM]
COc1ccc(CN2c3cc(-c4c(C)noc4C)ccc3NC(=O)C2C)cc1 [2(R)-6-(3,5-dimethylisoxazol-4-yl)-4-(4-methoxybenzyl)-3-methyl-3,4-dihydroquinoxalin-2(1H)-one (5b)] | 160
Cc1noc(C)c1-c1ccc2c(c1)N(C1CCCC1)[C@H](C)C(=O)N2 [4(R)-4-cyclopentyl-6-(3,5-dimethylisoxazol-4-yl)-3-methyl-3,4-dihydroquinoxalin 2(1H)-one (5] | 370
Cc1noc(C)c1-c1ccc2c(c1)N(Cc1ccc(Cl)cc1)CC(=O)N2 [4-(4-Chlorobenzyl)-6-(3,5-dimethylisoxazol-4-yl)-3,4-dihydroquinoxalin-2(1H)-one (5k)] | 500
Cc1noc(C)c1-c1ccc2c(c1)N(Cc1ccccc1)C(CO)C(=O)N2 [8(R)-4-benzyl-6-(3,5-dimethylisoxazol-4-yl)-3-(hydroxymethyl)-3,4-dihydroquinoxalin-2(1H)-one (5h)] | 650
Cc1noc(C)c1-c1ccc2c(c1)N(Cc1ccccc1)[C@H](Cc1ccccc1)C(=O)N2 [(R)-3,4-dibenzyl-6-(3,5-dimethylisoxazol-4-yl)-3,4-dihydroquinoxalin-2(1H)-one (5j)] | 151
CC[C@@H]1C(=O)Nc2ccc(-c3c(C)noc3C)cc2N1Cc1ccccc1 [(R)-4-benzyl-6-(3,5-dimethylisoxazol-4-yl)-3-ethyl-3,4-dihydroquinoxalin-2(1H)-one (5i)] | 73
COc1ccc(CN2c3cc(-c4c(C)noc4C)ccc3N(C)C(=O)[C@H]2C)cc1 [(R)-6-(3,5-dimethylisoxazol-4-yl)-4-(4-methoxybenzyl)-1,3-dimethyl-3,4-dihydroquinoxalin-2(1H)-one (8)] | 220
